Laboratory results published in US11691972B2, “Compounds for targeted degradation of BRD9” (C4 Therapeutics, Inc., priority 2020, dated 2023).

Biological target: T1, BRD9 (Homo sapiens, UniProt Q9H8M2)
T1 sequence (Q9H8M2 1-597): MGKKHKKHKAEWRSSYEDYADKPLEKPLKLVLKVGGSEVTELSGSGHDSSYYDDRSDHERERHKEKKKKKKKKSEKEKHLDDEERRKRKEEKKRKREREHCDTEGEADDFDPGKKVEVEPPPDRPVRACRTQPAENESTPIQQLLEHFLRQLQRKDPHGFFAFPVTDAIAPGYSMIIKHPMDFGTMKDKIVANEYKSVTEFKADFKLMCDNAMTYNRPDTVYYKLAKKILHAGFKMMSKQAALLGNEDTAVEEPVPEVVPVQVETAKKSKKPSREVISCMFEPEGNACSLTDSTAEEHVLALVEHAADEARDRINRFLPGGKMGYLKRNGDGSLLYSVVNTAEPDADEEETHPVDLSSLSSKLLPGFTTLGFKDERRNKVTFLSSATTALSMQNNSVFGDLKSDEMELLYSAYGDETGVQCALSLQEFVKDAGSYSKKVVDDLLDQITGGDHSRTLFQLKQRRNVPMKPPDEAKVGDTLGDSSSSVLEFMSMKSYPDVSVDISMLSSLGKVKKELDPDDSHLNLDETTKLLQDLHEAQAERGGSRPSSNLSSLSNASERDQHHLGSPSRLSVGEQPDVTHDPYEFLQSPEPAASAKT
Assay: HiBiT BRD9 degradation assay in 293T.166 (BRD9-HiBiT) cells
Format: cell-based
Set-up: endogenously expressing BRD9 with HiBiT fusion tag via CRISPR; host or cells: 293T.166 (BRD9-HiBiT), also expressing LgBiT ectopically
Details: Table 1; 293T.166 cells, 2.0 hours; class symbols; read-out: HiBiT-Degradation 293T.166 BRD9 2.0 hours (DC50)
Method: Selected compounds were tested in a BRD9 degradation assay using the HiBit Method.
Dulbecco's modified Eagle medium (DMEM) without phenol red and fetal bovine serum (FBS) were purchased from Gibco (Grand Island, N.Y., USA). Nano-Glo® HiBiT Lytic Assay System was purchased from Promega (Madison, Wis., USA). 293T.166 (BRD9-HiBiT) cell line, endogenously expressing BRD9 with HiBiT fusion tag via CRISPR and ectopically expressing LgBiT tag, was purchased from Promega (Madison, Wis., USA). 293T.167 (BRD7-HiBiT) cell line, endogenously expressing BRD7 with HiBiT fusion tag via CRISPR and ectopically expressing LgBiT tag, was purchased from Promega (Madison, Wis., USA). 293T.92 (BRD4-HiBiT) cell line, endogenously expressing BRD4 with HiBiT fusion tag via CRISPR and ectopically expressing LgBiT tag, was generated in-house. Cell culture flasks and 384-well microplates were acquired from VWR (Radnor, Pa., USA).
BRD9 degradation was determined based on quantification of luminescent signal using Nano-Glo® HiBiT Lytic Assay kit. Test compounds were added to the 384-well plate from a top concentration of 10 μM with 11 points, half log titration in duplicates. 293T.166 cells were added into 384-well plates at a cell density of 10,000 cells per well. The plates were kept at 37° C. with 5% CO2 for 2 hours. BRD7 and BRD4 degradation was similarly determined with 293T.167 cells and 293T.92 cells, respectively. The cells treated in the absence of the test compound were the negative control and the cells without Nano-Glo® HiBiT Lytic reagent were the positive control. After 2-hour incubation, Nano-Glo® HiBiT Lytic Assay reagents were added to the cells. Luminescence was acquired on EnVision™ Multilabel Reader (PerkinElmer, Santa Clara, Calif., USA).

Row | Compound | DC50 [nM]
1 | COc1cc(-c2cn(C)c(=O)c3[nH]ncc23)cc(OC)c1CN1CCC2(CC1)CN(C(=O)CN1CCC(c3ccc(NC4CCC(=O)NC4=O)cc3)CC1)C2 (centres unmarked) [Compound 4] | < 100
2 | COc1cc(-c2cn(C)c(=O)c3[nH]ncc23)cc(Cl)c1CN1CCC(CC(=O)N2CCC(c3ccc(NC4CCC(=O)NC4=O)cc3)C(F)(F)C2)CC1 (centres unmarked) [Compound 45] | < 100
3 | COc1cc(-c2cc(C)c(=O)n(C)c2)cc(OC)c1CN1CCN(C(=O)CN2CCC(c3ccc(NC4CCC(=O)NC4=O)cc3)CC2)CC1 (centres unmarked) [Compound 31] | < 100
4 | COc1cc(-c2cn(C)c(=O)c3[nH]ncc23)cc(OC)c1CN1CC(NC(=O)CN2CCC(c3ccc(NC4CCC(=O)NC4=O)cc3)CC2)C1 (centres unmarked) [Compound 5] | < 100
5 | COc1cc(-c2cn(C)c(=O)c3[nH]ncc23)cc(F)c1CN1CCN(C(=O)CN2CCC(c3ccc(NC4CCC(=O)NC4=O)cc3)C(F)(F)C2)CC1 (centres unmarked) [Compound 33] | < 100
6 | COc1cc(-c2cn(C)c(=O)c3cnccc23)cc(Cl)c1CN1CCC(CCC2CCN(c3ccc(NC4CCC(=O)NC4=O)cc3F)CC2)CC1 (centres unmarked) [Compound 150] | < 100
7 | COc1cc(-c2cn(C)c(=O)c3cnccc23)cc(Cl)c1CN1CCC(C2CCN(c3ccc(NC4CCC(=O)NC4=O)nc3)CC2)CC1 (centres unmarked) [Compound 89] | < 100
8 | COc1cc(-c2cn(C)c(=O)c3[nH]ncc23)cc(OC)c1CN1CCN(C(=O)CN2CCC(c3ccc(NC4CCC(=O)NC4=O)cc3F)CC2)CC1 (centres unmarked) [Compound 7] | < 100
9 | CN(C(=O)N1CCC(c2ccc(NC3CCC(=O)NC3=O)cc2)CC1)C1CCN(Cc2ccc(-c3cn(C)c(=O)c4[nH]ncc34)cc2OC(F)(F)F)CC1 (centres unmarked) [Compound 116] | < 100
10 | COc1cc(-c2cn(C)c(=O)c3[nH]ncc23)cc(OC)c1CN1CCN(C(=O)CC2CCN(c3ccc(NC4CCC(=O)NC4=O)cc3)CC2)CC1 (centres unmarked) [Compound 50] | < 100
11 | COc1cc(-c2cn(C)c(=O)c3[nH]ncc23)cc(OC)c1CN1CCc2c(CN3CCC(c4ccc(NC5CCC(=O)NC5=O)cc4)C(F)(F)C3)csc2C1 (centres unmarked) [Compound 103] | < 100
12 | COc1cc(-c2cn(C)c(=O)c3[nH]ncc23)cc(OC)c1CN1C[C@@H]2C[C@H]1CN2C(=O)CN1CCC(c2ccc(NC3CCC(=O)NC3=O)cc2)CC1 (some centres unmarked) [Compound 13] | < 100
13 | COc1cc(-c2cn(C)c(=O)c3[nH]ncc23)cc(F)c1CC1CCN(CC(=O)N2CCC(c3ccc(NC4CCC(=O)NC4=O)cc3)CC2)CC1 (centres unmarked) [Compound 156, 3-[4-[1-[2-[4-[[2-fluoro-6-methoxy-4-(6-methyl-7-oxo-1H-pyrazolo[3,4-c]pyridin-4-yl)phenyl]methyl]-1-piperidyl]acetyl]-4-piperidyl]anilino]piperidine-2,6-dione] | < 100
14 | Cc1c(-c2ccc(CN3CCC(C4CCN(c5ccc(NC6CCC(=O)NC6=O)nc5)CC4)CC3)c(OC(F)(F)F)c2)cn(C)c(=O)c1C (centres unmarked) [Compound 90] | < 100
15 | COc1cc(-c2cn(C)c(=O)c3[nH]ncc23)cc(F)c1CN1CCN(C(=O)CN2CCC(c3ccc(N(C)C4CCC(=O)NC4=O)cc3)CC2)CC1 (centres unmarked) [Compound 35] | < 100
16 | COc1cc(-c2cn(C)c(=O)c3[nH]ncc23)cc(F)c1CN1CCC(O)(CC(=O)N2CCC(c3ccc(NC4CCC(=O)NC4=O)cc3F)CC2)CC1 (centres unmarked) [Compound 154] | < 100
17 | COc1cc(-c2cn(C)c(=O)c3cnccc23)cc(Cl)c1CN1CCc2c(CC3CCN(c4ccc(NC5CCC(=O)NC5=O)cc4F)CC3)cccc2C1 (centres unmarked) [Compound 107] | < 100
18 | COc1cc(-c2cn(C)c(=O)c(C)c2C)cc(Cl)c1CN1CCC(C2CCN(c3ccc(NC4CCC(=O)NC4=O)cc3Cl)CC2)CC1 (centres unmarked) [Compound 76] | < 100
19 | COc1cc(-c2cn(C)c(=O)c3[nH]ncc23)cc(F)c1C(=O)N1CCC(N(C)C(=O)N2CCC(c3ccc(NC4CCC(=O)NC4=O)cc3)CC2)CC1 (centres unmarked) [Compound 134] | < 100
20 | COc1cc(-c2cn(C)c(=O)c3cnccc23)cc(Cl)c1CN1CCC(CCC2CCN(c3ccc(NC4CCC(=O)NC4=O)cc3C(F)(F)F)CC2)CC1 (centres unmarked) [Compound 149] | < 100

More lines, now with the values ahead:

Row | DC50 [nM] | Compound
21 | < 100 | Cc1c(-c2ccc(C(=O)N3CCC(C4CCN(c5ccc(NC6CCC(=O)NC6=O)cc5F)CC4)CC3)c(OC(F)(F)F)c2)cn(C)c(=O)c1C (centres unmarked) [Compound 212, 3-[3-fluoro-4-[4-[1-[2-(trifluoromethoxy)-4-(1,4,5-trimethyl-6-oxo-3-pyridyl)benzoyl]-4-piperidyl]-1-piperidyl]anilino]piperidine-2,6-dione]
22 | < 100 | COc1cc(-c2cn(C)c(=O)c3cnccc23)cc(Cl)c1C(=O)N1CCC(C2CCN(c3ccc(NC4CCC(=O)NC4=O)nc3)CC2)CC1 (centres unmarked) [Compound 221]
23 | < 100 | COc1cc(-c2cn(C)c(=O)c3cnccc23)cc(Cl)c1C=C1CCN(C(=O)CC2CCN(c3ccc(NC4CCC(=O)NC4=O)cc3F)CC2)CC1 (centres unmarked) [Compound 161, 3-[4-[4-[2-[4-[[2-chloro-6-methoxy-4-(2-methyl-1-oxo-2,7-naphthyridin-4-yl)phenyl]methylene]-1-piperidyl]-2-oxo-ethyl]-1-piperidyl]-3-fluoro-anilino]piperidine-2,6-dione]
24 | < 100 | COc1cc(-c2cn(C)c(=O)c3[nH]ncc23)cc(Cl)c1CN1CCC(CC(=O)N2CCC(c3ccc(NC4CCC(=O)NC4=O)cc3)CC2)C(F)(F)C1 (single isomer, unassigned) [Compound 203, 3-[4-[1-[2-[1-[[2-chloro-6-methoxy-4-(6-methyl-7-oxo-1H-pyrazolo[3,4-c]pyridin-4-yl)phenyl]methyl]-3,3-difluoro-4-piperidyl]acetyl]-4-piperidyl]anilino]piperidine-2,6-dione]
25 | < 100 | COc1cc(-c2cn(C)c(=O)c3[nH]ncc23)cc(F)c1C=C1CCN(CC(=O)N2CCC(c3ccc(NC4CCC(=O)NC4=O)cc3)CC2)CC1 (centres unmarked) [Compound 157, 3-[4-[1-[2-[4-[[2-fluoro-6-methoxy-4-(6-methyl-7-oxo-1H-pyrazolo[3,4-c]pyridin-4-yl)phenyl]methylene]-1-piperidyl]acetyl]-4-piperidyl]anilino]piperidine-2,6-dione]
26 | < 100 | COc1cc(-c2cn(C)c(=O)c3cnccc23)cc(Cl)c1CN1CCC(N2CCN(c3ccc(NC4CCC(=O)NC4=O)nc3)CC2)C(F)(F)C1 (centres unmarked) [Compound 194]
27 | < 100 | COc1cc(-c2cn(C)c(=O)c3cnccc23)cc(Cl)c1CN1CCC(N2CCN(c3ccc(NC4CCC(=O)NC4=O)cc3F)CC2)C(F)(F)C1 (single isomer, unassigned) [Compound 180, 3-[4-[4-[1-[[2-chloro-6-methoxy-4-(2-methyl-1-oxo-2,7-naphthyridin-4-yl)phenyl]methyl]-3,3-difluoro-4-piperidyl]piperazin-1-yl]-3-fluoro-anilino]piperidine-2,6-dione]

Same assay, conditions: Table 2; 293T.166 cells, 2.0 hours; class symbols; read-out: HiBiT-Degradation 293T.166 BRD9 2.0 hours (DC50)

Row | DC50 [nM] | Compound
28 | < 100 | COc1cc(-c2cn(C)c(=O)c(C)c2C)cc(OC)c1CN1C2CCC1CN(C(=O)CC1CCN(c3ccc(NC4CCC(=O)NC4=O)nc3)CC1)C2 (centres unmarked) [Compound 272]
29 | < 100 | C/C=C/Cn1cc(-c2cc(OC)c(CN3CCC(N4CCN(c5ccc(NC6CCC(=O)NC6=O)cc5F)CC4)C(F)(F)C3)c(OC)c2)c(C)c(C)c1=O (centres unmarked) [Compound 265, 3-[4-[4-[1-[[4-[1-[(E)-but-2-enyl]-4,5-dimethyl-6-oxo-3-pyridyl]-2,6-dimethoxy-phenyl]methyl]-3,3-difluoro-4-piperidyl]piperazin-1-yl]-3-fluoro-anilino]piperidine-2,6-dione]
30 | < 100 | COc1cc(-c2cn(C)c(=O)c(C)c2C)cc(Cl)c1CN1CCC(C2CCN(c3ccc(NC4CCC(=O)NC4=O)nc3)CC2)C(F)(F)C1 (centres unmarked) [Compound 273]
31 | < 100 | COc1cc(-c2cn(C)c(=O)c3cnccc23)c(Cl)cc1CN1CCC(N2CCN(c3ccc(NC4CCC(=O)NC4=O)cc3F)CC2)C(F)(F)C1 (centres unmarked) [Compound 255]
32 | < 100 | COc1cc(-c2cn(C)c(=O)c3cnccc23)cc(Cl)c1CN1CCC(C2CCN(c3ccc(NC4CCC(=O)NC4=O)nc3)CC2)C(F)(F)C1 (centres unmarked) [Compound 262]
